# Test results reported in paper PMC10376691, “Inhibition of Acetylcholinesterase and Amyloid-β Aggregation by Piceatannol and Analogs: Assessing In Vitro and In Vivo Impact on a Murine Model of Scopolamine-Induced Memory Impairment” (Antioxidants, 2023).
# “Also recorded” adds a separate entry of the source.
# B1: lecanemab (antibody, chains of the INN, looked up, V domains shown)
# VH: EVQLVESGGGLVQPGGSLRLSCSASGFTFSSFGMHWVRQAPGKGLEWVAYISSGSSTIYYGDTVKGRFTISRDNAKNSLFLQMSSLRAEDTAVYYCAREGGYYYGRSYYTMDYWGQGTTVTVSS
# VL: DVVMTQSPLSLPVTPGAPASISCRSSQSIVHSNGNTYLEWYLQKPGQSPKLLIYKVSNRFSGVPDRFSGSGSGTDFTLRISRVEAEDVGIYYCFQGSHVPPTFGPGTKLEIK
# What was measured:
# [1] = tested on: scopolamine-induced mice with cognitive impairment; details: one-month pre-treatment via cannula into the third ventricle, total 65 ng/month/head; cited from earlier work
# [2] = DPPH radical scavenging activity; details: 120 μM DPPH in methanol, 37 °C, 20 min
# Protocol: DPPH radical scavenging activity was assayed following a previous report, with some modifications. […] DMSO was used instead of a sample solution in the blank group. […] The scavenging activity of the DPPH radical (%) was calculated with the following equation: (△A515blank − △A515sample) ÷ △A515blank × 100%. The IC50 of the DPPH radical scavenging activity of PIC and its analogs or that of Trolox was calculated from each linear equation by three test concentrations and their radical scavenging activities.
# recombinant human AChE = target: T1, recombinant human AChE (Homo sapiens, UniProt P22303); test: AChE inhibitory activity in vitro (acetylthiocholine/DTNB); type: biochemical; details: calculated from 100, 200, 500 μM; read-out: IC50 of the anti-AChE activity
# T1 construct: purchased R&D Systems Inc. (Minneapolis, MN, USA)
# Protocol: Commercially synthesized acetylthiocholine iodide was hydrolyzed using AChE to release thiocholine, which was coupled with DTNB to generate the yellowish 5-thio-2-nitrobenzoate for in vitro AChE activity assays. For the AChE inhibitory activity assay, each analog was dissolved in the DMSO, and final concentrations of 100, 200, and 500 μM were used for comparisons. An equal volume of DMSO instead of the sample solution was used in the blank group and expressed as 100% AChE activity. […] AChE inhibition (%) was calculated as follows: [(A405blank − A405sample)/(A405blank)] × 100%.
# Aβ peptide (1–42) = target: T2, Aβ peptide (1–42) (Homo sapiens, UniProt P05067); test: biochemical; details: 10 μM Aβ working solution, ThT, 37 °C, 24 h; read-out: IC50 of the anti-Aβ peptide (1–42) aggregation
# T2 construct: The Aβ peptide (1–42) was synthesized and purchased from Kelowna International Scientific Inc; purchased Kelowna International Scientific Inc. (New Taipei, Taiwan); host or cells: chemical synthesis
# Protocol: To prepare the 10 μM Aβ peptide working solution, commercial Aβ peptide was first weighted and dissolved in HFIP to 1 mM. Next, the solvent was evaporated in a hood and then re-dissolved using 100 μL of 60 mM NaOH. It was then diluted to 10 μM working solutions with 50 mM phosphate buffer (pH 7.4, containing 150 mM sodium chloride and 1 mM EDTA), following previous reports. […] DMSO instead of the sample solution was used as the control. The 50 mM phosphate buffer was used instead of the Aβ working solution as the sample blank. […] The IC50 of the inhibition against the Aβ aggregation of PIC and its analogs was calculated from each linear equation using three test concentrations and their inhibition capacities.
# SH-SY5Y cells [3] = test: Neuroprotection against Aβ peptide (25–35)-induced cell deaths (MTT); type: cell-based, human; details: pre-treatment 1, 2 and 10 μM for 24 h, then 40 μg/mL Aβ (25–35) 24 h; vs control p < 0.05
# Protocol: The human SH-SY5Y neuroblastoma cell lines (CRL-2266, Lot No. 58979771) were purchased from American Type Culture Collection (Manassas, VA, USA) and used as models to investigate PIC and its analogs for neuroprotective activities against Aβ-induced cell deaths and the stimulation of neurite outgrowths. The SH-SY5Y cells were grown in DMEM/F-12 medium supplemented with 10% FBS at 37 °C under a humidified atmosphere and 5% CO2 [41]. […]. The SH-SY5Y cells (10,000 cells/well) were seeded and cultured in a DMEM/F-12 medium containing 10% FBS for 24 h at 37 °C under a humidified atmosphere and 5% CO2. […] The medium was then removed, and 40 μg/mL Aβ peptide (25–35) (dissolved in PBS) or an equal aliquot of PBS was added to the medium for another 24 h culture. The MTT was used to evaluate cell viability, and the absorbance at 570 nm was determined. The DMSO used instead of the sample solution was blank (recognized as 100%), and each treatment was expressed as relative cell viability (%). To study the stimulation of neurite outgrowth, the SH-SY5Y cells (5000 cells/well) were seeded on a 96-well plate pre-coated with poly-L-lysine and then cultured in the DMEM/F-12 medium containing 10% FBS overnight at 37 °C under a humidified atmosphere and 5% CO2. After being removed from the culture medium, each PIC, GNT, RHA, and isoRHA (at a final concentration of 10 μM in the 0.1%DMSO) or 0.1% DMSO (the control) was added to the DMEM/F-12 medium containing 10% FBS and refreshed every three days. On day 3 and day 6, each of the culture plates was photographed using an inverted microscope (ECLIPSE TS100, Nikon Instruments Inc., Tokyo, Japan). The culture medium was removed and washed with PBS, and the cultured cells in each well were fixed with 4% paraformaldehyde. To measure cell viability and quantify the neurite outgrowths of the treated SH-SY5Y in a 96-well plate, the neurite outgrowth staining kit (a two-color fluorescence assay kit) was used, following a previous report or the protocol in the manufacturer’s manual (publication number: MAN0007224), which included a cell membrane-stained fluorescent dye (orange-red fluorescence), a cell viability indicator (green fluorescence), and a reagent for background masking. The fluorescence ratios of Ex555nm/Em565nm and Ex495nm/Em515nm were determined for the neurite outgrowths and the cell viabilities, respectively. The value for the control was recognized as 100%, and each treatment was expressed relative to the control.
# [4] = Neurite outgrowth and cell viability, two-color fluorescence assay kit; type: cell-based; details: human, SH-SY5Y neuroblastoma cells, 3-day or 6-day treatment, green fluorescence, read-out: cell viability relative to the control
# Protocol: (§1) The SH-SY5Y cells were grown in DMEM/F-12 medium supplemented with 10% FBS at 37 °C under a humidified atmosphere and 5% CO2 [41]. […] The MTT was used to evaluate cell viability, and the absorbance at 570 nm was determined. The DMSO used instead of the sample solution was blank (recognized as 100%), and each treatment was expressed as relative cell viability (%). To study the stimulation of neurite outgrowth, the SH-SY5Y cells (5000 cells/well) were seeded on a 96-well plate pre-coated with poly-L-lysine and then cultured in the DMEM/F-12 medium containing 10% FBS overnight at 37 °C under a humidified atmosphere and 5% CO2. After being removed from the culture medium, each PIC, GNT, RHA, and isoRHA (at a final concentration of 10 μM in the 0.1%DMSO) or 0.1% DMSO (the control) was added to the DMEM/F-12 medium containing 10% FBS and refreshed every three days. On day 3 and day 6, each of the culture plates was photographed using an inverted microscope (ECLIPSE TS100, Nikon Instruments Inc., Tokyo, Japan). The culture medium was removed and washed with PBS, and the cultured cells in each well were fixed with 4% paraformaldehyde. To measure cell viability and quantify the neurite outgrowths of the treated SH-SY5Y in a 96-well plate, the neurite outgrowth staining kit (a two-color fluorescence assay kit) was used, following a previous report or the protocol in the manufacturer’s manual (publication number: MAN0007224), which included a cell membrane-stained fluorescent dye (orange-red fluorescence), a cell viability indicator (green fluorescence), and a reagent for background masking. […] The value for the control was recognized as 100%, and each treatment was expressed relative to the control.
# SH-SY5Y cells [5] = test: as above; type: cell-based; details: 10 μM
# Protocol: as §1
# [6] = read-out: Cmax of metabolite; after intravenous PIC 90 μmole/kg (21.98 mg/kg), SD rats; cited from earlier work
# [7] = cited from earlier work
# [8] = tested on: scopolamine-induced amnesiac ICR mice; details: pre-treatment 40 mg/kg; cited from earlier work
# early Alzheimer’s = details: 18-month phase-3 trial; cited from earlier work
# T2 sequence (P05067 672-713): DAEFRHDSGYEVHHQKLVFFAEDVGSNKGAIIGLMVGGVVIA
# T1 sequence (P22303 32-614): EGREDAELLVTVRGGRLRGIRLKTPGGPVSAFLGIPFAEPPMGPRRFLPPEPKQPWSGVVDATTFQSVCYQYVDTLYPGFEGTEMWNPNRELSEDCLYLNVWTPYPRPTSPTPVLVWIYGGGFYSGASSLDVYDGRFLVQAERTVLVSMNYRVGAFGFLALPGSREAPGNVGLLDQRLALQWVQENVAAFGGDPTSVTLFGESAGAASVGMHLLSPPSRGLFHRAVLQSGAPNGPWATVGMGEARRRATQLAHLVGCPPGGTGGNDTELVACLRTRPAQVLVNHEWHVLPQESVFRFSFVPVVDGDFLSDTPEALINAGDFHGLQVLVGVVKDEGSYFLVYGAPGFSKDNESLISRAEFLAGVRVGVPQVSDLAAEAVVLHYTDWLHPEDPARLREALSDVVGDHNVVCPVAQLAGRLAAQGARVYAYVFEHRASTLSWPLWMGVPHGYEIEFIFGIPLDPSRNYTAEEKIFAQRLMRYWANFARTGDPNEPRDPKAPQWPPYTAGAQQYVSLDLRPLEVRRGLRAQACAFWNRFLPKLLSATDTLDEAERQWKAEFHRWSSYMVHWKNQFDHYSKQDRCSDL
molecule,measurement,setting,value
Oc1ccc([C@H]2c3c(O)cc(O)cc3[C@H]3c4c(cc(O)cc4[C@@H]2O)O[C@@H]3c2ccc(O)cc2)cc1 [ampelopsin A],"learning behavior, passive avoidance test and novel object recognition",[1],clear restoration of learning behavior
"COc1cc(C=Cc2cc(O)cc(O)c2)ccc1O [isoRHA, 3,5,4′-trihydroxy-3′-methoxystilbene]",IC50,[2],72.9 µM
same,IC50,recombinant human AChE,322 µM
same,IC50,Aβ peptide (1–42),1.94 µM
same,neuroprotection: cell viability against Aβ peptide (25–35)-induced cell deaths,SH-SY5Y cells [3],elevated cell viabilities
same,viability at 10 µM,[4],80%
same,stimulation of neurite outgrowths,"SH-SY5Y cells [5]; 3-day or 6-day treatment, orange-red fluorescence, vs control",stimulate neurite outgrowths; also recorded: showed stimulated activities toward neurite outgrowths; also recorded: showed stimulatory activity in neurite outgrowths
same,"total neurite lengths in living SH-SY5Y cells, fold of the control",SH-SY5Y cells [5]; calculated,1.375 fold
same,Cmax,[6],5.08 ± 0.31 µM
OC[C@H]1O[C@@H](Oc2cc(/C=C/c3cc(O)cc(O)c3)ccc2O)[C@H](O)[C@@H](O)[C@@H]1O [piceatannol-3′-O-β-D-glucopyranoside],crossing of the BBB,[7],reported to cross the BBB
Oc1ccc([C@H]2c3c(O)cc(O)cc3[C@H]3c4c(cc(O)cc4[C@@H]2c2cc(/C=C/c4cc(O)cc5c4[C@H](c4cc(O)cc(O)c4)[C@@H](c4ccc(O)cc4)O5)ccc2O)O[C@@H]3c2ccc(O)cc2)cc1 [vitisin A],learning and memory functions via the passive avoidance test,[8],improved learning and memory functions
B1,less decline in measures of cognition and function as compared to a placebo,early Alzheimer’s,25%
